In patent US20250205198A1, “METHODS FOR DELIVERY OF PSYCHEDELIC MEDICATIONS BY INHALATION AND SYSTEMS FOR PERFORMING THE METHODS” (Cybin IRL Limited, priority 2022, published 2025):

How the values were obtained:
[1] = Plasma pharmacokinetics after intravenous (bolus) co-administration of DMT and DMT-d10 to male rats (Group 4); details: for AUC0-1/dose: dose normalized; for t1/2: calculated 0.083 to 1.0 hr
[2] = Brain pharmacokinetics and brain to plasma ratio after intravenous (bolus) co-administration of DMT and DMT-d10 to male rats (Group 4); details: for Kp: male, Sprague Dawley, rat, iv, 1 mg/kg
[3] = Plasma pharmacokinetics after oral gavage co-administration of DMT and DMT-d10 to male rats (Group 2); details: for bioavailability / AUC(0-t): male, Sprague Dawley, rat, po, 10 mg/kg; for bioavailability / AUC(0-t) / AUC0-1/dose: plasma; for time of peak plasma concentration postdose: oral administration 10 mg/kg; for AUC0-1/dose: dose normalized
[4] = Plasma pharmacokinetics after 20-minute snout-only inhalation (nebulized aerosol) co-administration of DMT and DMT-d10 to male rats (Group 6); details: for mean residence time (MRT) after inhalation compared to IV administration, fold greater: inhalation vs IV; for time of highest plasma concentration (first time point taken): after start of inhalation; for AUC0-1/dose: dose normalized
[5] = male, Sprague Dawley, rat, plasma, iv, 1 mg/kg
[6] = plasma, male rats, IV bolus 1 mg/kg, co-administered
[7] = summary table, plasma, intravenous 1 mg/kg
[8] = brain, male rats, IV bolus 1 mg/kg, co-administered
[9] = AUC0-t, male rats, oral gavage (OG) 10 mg/kg, co-administered
[10] = plasma, inhalation 14.3 mg/kg DMT, 15.5 mg/kg DMT-d10
[11] = plasma, male rats, inhalation 14.3 mg/kg DMT + 15.5 mg/kg DMT-d10
[12] = summary table, plasma, inhalation 14.3 mg/kg DMT, 15.5 mg/kg DMT-d10
[13] = male, Sprague Dawley, rat, plasma, inhaled or intranasal, 15.5 mg/kg

| SMILES | time of highest plasma concentration (first time point taken) ([1]; IV bolus 1 mg/kg) [h] | MRT last [1, 5] [min] | AUC0-1/dose ([1]; plasma, intravenous 1 mg/kg) | AUC0-1 [1, 6] [ng·h/mL] | AUC(0-t) [1, 6] [ng·h/mL] | AUC0-1 [1, 7] [ng·h/mL] | t1/2 [1, 7] [min] | AUC0-t (brain) [2, 8] [ng·h/g] | Cmax (brain) [2, 8] [ng/g] | Kp ([2]; brain) | bioavailability [3] [%] | AUC(0-t) [3, 9] [ng·h/mL] | time of peak plasma concentration postdose [3] [h] | AUC0-1/dose ([3]; oral 10 mg/kg) | mean residence time (MRT) after inhalation compared to IV administration, fold greater [4] | time of highest plasma concentration (first time point taken) ([4]; inhalation) [h] | AUC0-1/dose [4, 10] | AUC0-1 [4, 12] [ng·h/mL] | other results |
| --- | --- | --- | --- | --- | --- | --- | --- | --- | --- | --- | --- | --- | --- | --- | --- | --- | --- | --- | --- |
| CN(C)CCc1c[nH]c2ccccc12 [DMT, N,N-dimethyltryptamine, reference compound] | 0.083 | 12.7 | 112 | 112 | 112 | 112 | 10.3 | 1060 | 3430 | 9.5 | 1.36 | 109 | 1 | 1.52 | approximately 5 × | 0.333 | 18.2 | 260 | half-life [1, 5]: 10.3 min; AUC0-inf [1, 6]: 114 ng·h/mL; AUC0-inf (brain) [2, 8]: 1070 ng·h/g; t1/2 (brain) ([2]; brain, male rats, IV bolus 1 mg/kg, calculated 0.25 to 1 hr): 9.3 min; AUC(0-t) ([3]; AUC0-1, plasma, male rats, oral gavage (OG) 10 mg/kg, co-administered): 15.2 ng·h/mL; AUC(0-t) ([3]; AUC0-1, summary table, oral 10 mg/kg): 15.2 ng·h/mL; AUC(0-t) [4, 11]: 308 ng·h/mL |
| [2H]C([2H])([2H])N(C([2H])([2H])[2H])C([2H])([2H])C([2H])([2H])c1c[nH]c2ccccc12 [DMT-d10, 2-(1H-indol-3-yl)-N,N-bis(methyl-d3)ethan-1-amine-1,1,2,2-d4] | 0.083 | 19.6 | 75.4 | 75.4 | 75.4 | 75.4 | 26.8 | 931 | 1490 | 12.3 | 1.16 | 80.2 | 1 | 0.878 | approximately 5 × | 0.333 | 17.0 | 264 | improvement of duration of exposure (MRTlast) by deuteration ([1]; DMT-d10 vs. DMT, after IV): 54.5%; t1/2 ([1]; plasma, male rats, IV bolus 1 mg/kg): 26.8 min; improvement of brain to plasma (B/P) ratio by deuteration ([2]; DMT-d10 vs. DMT, IV 1 mg/kg): approximately 30%; improvement of duration of exposure (MRTlast) by deuteration ([4]; DMT-d10 vs. DMT, after inhalation): 24.6%; increase of inhalation bioavailability by deuteration ([4]; DMT-d10 vs. DMT, inhalation): approximately 40%; inhalation bioavailability, fold greater than oral bioavailability ([4]; inhalation vs oral): approximately 20 ×; AUC0-inf [4, 13]: 384 ng·h/mL; half-life [4, 13]: 325 min; AUC0-1 [4, 11]: 264 ng·h/mL; t1/2 ([4]; summary table, plasma, inhalation 15.5 mg/kg DMT-d10, calculated 0.333 to 3.333 hr): 325 min |
